From patent publication US12077503B2, “Substituted cyclic amides and their use as herbicides” (FMC CORPORATION, priority 2015, dated 2024)

Columns and labels:
Assay type in all cases: in vivo
[1] = tested on: barnyardgrass (Echinochloa crus-galli); test: Test G Pre-Emergence Protocol; conditions: Echinochloa crus-galli, pre-emergence, 312 h, evaluated after 13 days; for pest or weed control at 15.625 g/ha: 15.625 g ai/ha, read-out: Barnyard grass damage rating (100=total damage to plant; 0=no damage to plant); for pest or weed control at 62.5 g/ha: 62.5 g ai/ha, 100=total damage to plant, 0=no damage to plant, read-out: plant damage rating, Barnyardgrass; for pest or weed control at 250 g/ha: 250 g ai/ha, read-out: Barnyardgrass damage rating (100=total damage to plant; 0=no damage to plant)
How it was run: (§1)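 Herbicidal effect was rated 13 days post-application on a scale where 100 equals total damage. Spraying took place the day after sowing, using 15.625, 62.5 or 250 g/ha of compound in a 50:50 acetone/water solution with 0.5% Tween 20.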

[2] = tested on: corn (Zea mays); test: Test G Pre-Emergence Protocol; conditions: Zea mays, pre-emergence, 312 h, evaluated after 13 days; for plant injury at 15.625 g/ha: 15.625 g ai/ha; for plant injury at 15.625 g/ha / plant injury at 250 g/ha: read-out: Corn damage rating (100=total damage to plant; 0=no damage to plant); for plant injury at 62.5 g/ha: 62.5 g ai/ha, 100=total damage to plant, 0=no damage to plant, read-out: plant damage rating, Corn; for plant injury at 250 g/ha: 250 g ai/ha
How it was run: as §1

[3] = tested on: giant foxtail (Setaria faberi); test: Test G Pre-Emergence Protocol; conditions: Setaria faberi, pre-emergence, 312 h, evaluated after 13 days; for pest or weed control at 15.625 g/ha: 15.625 g ai/ha; for pest or weed control at 15.625 g/ha / pest or weed control at 250 g/ha: read-out: Foxtail, Giant damage rating (100=total damage to plant; 0=no damage to plant); for pest or weed control at 62.5 g/ha: 62.5 g ai/ha, 100=total damage to plant, 0=no damage to plant, read-out: plant damage rating, Foxtail, Giant; for pest or weed control at 250 g/ha: 250 g ai/ha
How it was run: as §1

[4] = tested on: ivy-leaved morning glory (Ipomoea hederacea); test: Test G Pre-Emergence Protocol; conditions: Ipomoea, pre-emergence, 312 h, evaluated after 13 days; for pest or weed control at 15.625 g/ha: 15.625 g ai/ha, read-out: Morning-glory, Ivy-leaved damage rating (100=total damage to plant; 0=no damage to plant); for pest or weed control at 62.5 g/ha: 62.5 g ai/ha, 100=total damage to plant, 0=no damage to plant, read-out: plant damage rating, Morningglory, Ivy-leaved; for pest or weed control at 250 g/ha: 250 g ai/ha, read-out: Morningglory, Ivy-leaved damage rating (100=total damage to plant; 0=no damage to plant)
How it was run: as §1

[5] = tested on: redroot pigweed (Amaranthus retroflexus); test: Test G Pre-Emergence Protocol; conditions: Amaranthus retroflexus, pre-emergence, 312 h, evaluated after 13 days; for pest or weed control at 15.625 g/ha: 15.625 g ai/ha; for pest or weed control at 15.625 g/ha / pest or weed control at 250 g/ha: read-out: Pigweed, Redroot damage rating (100=total damage to plant; 0=no damage to plant); for pest or weed control at 62.5 g/ha: 62.5 g ai/ha, 100=total damage to plant, 0=no damage to plant, read-out: plant damage rating, Pigweed, Redroot; for pest or weed control at 250 g/ha: 250 g ai/ha
How it was run: as §1

[6] = tested on: velvetleaf (Abutilon theophrasti); test: Test G Pre-Emergence Protocol; conditions: Abutilon theophrasti, pre-emergence, 312 h, evaluated after 13 days; for pest or weed control at 15.625 g/ha: 15.625 g ai/ha; for pest or weed control at 15.625 g/ha / pest or weed control at 250 g/ha: read-out: Velvetleaf damage rating (100=total damage to plant; 0=no damage to plant); for pest or weed control at 62.5 g/ha: 62.5 g ai/ha, 100=total damage to plant, 0=no damage to plant, read-out: plant damage rating, Velvetleaf; for pest or weed control at 250 g/ha: 250 g ai/ha
How it was run: as §1

[7] = tested on: barnyardgrass (Echinochloa crus-galli); test: Test G Post-Emergence Protocol; conditions: Echinochloa crus-galli, post-emergence, 312 h; for pest or weed control at 15.625 g/ha: 15.625 g ai/ha, evaluated after 13 days (100=total damage to plant; 0=no damage to plant), read-out: Barnyardgrass damage rating; for pest or weed control at 62.5 g/ha: 62.5 g ai/ha, read-out: Barnyardgrass damage rating (100=total damage to plant; 0=no damage to plant); for pest or weed control at 62.5 g/ha / pest or weed control at 250 g/ha: evaluated after 13 days; for pest or weed control at 250 g/ha: 250 g ai/ha, read-out: damage to plant, Barnyardgrass (100=total damage to plant; 0=no damage to plant)
How it was run: (§2)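 Foliar application was made 8 days after sowing, using an aqueous spray of the active in acetone/water (50:50) with 0.5% Tween 20, at doses of 15.625, 62.5 or 250 g/ha. Injury was assessed 13 days later, where 100 meant the plant was fully damaged.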

[8] = tested on: corn (Zea mays); test: Test G Post-Emergence Protocol; conditions: Zea mays, post-emergence, 312 h; for plant injury at 15.625 g/ha: 15.625 g ai/ha, evaluated after 13 days (100=total damage to plant; 0=no damage to plant), read-out: Corn damage rating; for plant injury at 62.5 g/ha: 62.5 g ai/ha, read-out: Corn damage rating (100=total damage to plant; 0=no damage to plant); for plant injury at 62.5 g/ha / plant injury at 250 g/ha: evaluated after 13 days; for plant injury at 250 g/ha: 250 g ai/ha, read-out: damage to plant, Corn (100=total damage to plant; 0=no damage to plant)
How it was run: as §2

[9] = tested on: giant foxtail (Setaria faberi); test: Test G Post-Emergence Protocol; conditions: Setaria faberi, post-emergence, 312 h; for pest or weed control at 15.625 g/ha: 15.625 g ai/ha, evaluated after 13 days (100=total damage to plant; 0=no damage to plant), read-out: Foxtail, Giant damage rating; for pest or weed control at 62.5 g/ha: 62.5 g ai/ha, read-out: Foxtail, Giant damage rating (100=total damage to plant; 0=no damage to plant); for pest or weed control at 62.5 g/ha / pest or weed control at 250 g/ha: evaluated after 13 days; for pest or weed control at 250 g/ha: 250 g ai/ha, read-out: damage to plant, Foxtail, Giant (100=total damage to plant; 0=no damage to plant)
How it was run: as §2

[10] = tested on: ivy-leaved morning glory (Ipomoea hederacea); test: Test G Post-Emergence Protocol; conditions: Ipomoea, post-emergence, 312 h; for pest or weed control at 15.625 g/ha: 15.625 g ai/ha, evaluated after 13 days (100=total damage to plant; 0=no damage to plant), read-out: Morningglory, Ivy-leaved damage rating; for pest or weed control at 62.5 g/ha: 62.5 g ai/ha, read-out: Morningglory, Ivy-leaved damage rating (100=total damage to plant; 0=no damage to plant); for pest or weed control at 62.5 g/ha / pest or weed control at 250 g/ha: evaluated after 13 days; for pest or weed control at 250 g/ha: 250 g ai/ha, read-out: damage to plant, Morningglory, Ivy-leaved (100=total damage to plant; 0=no damage to plant)
How it was run: as §2

[11] = tested on: redroot pigweed (Amaranthus retroflexus); test: Test G Post-Emergence Protocol; conditions: Amaranthus retroflexus, post-emergence, 312 h; for pest or weed control at 15.625 g/ha: 15.625 g ai/ha, evaluated after 13 days (100=total damage to plant; 0=no damage to plant), read-out: Pigweed, Redroot damage rating; for pest or weed control at 62.5 g/ha: 62.5 g ai/ha, read-out: Pigweed, Redroot damage rating (100=total damage to plant; 0=no damage to plant); for pest or weed control at 62.5 g/ha / pest or weed control at 250 g/ha: evaluated after 13 days; for pest or weed control at 250 g/ha: 250 g ai/ha, read-out: damage to plant, Pigweed, Redroot (100=total damage to plant; 0=no damage to plant)
How it was run: as §2

[12] = tested on: velvetleaf (Abutilon theophrasti); test: Test G Post-Emergence Protocol; conditions: Abutilon theophrasti, post-emergence, 312 h; for pest or weed control at 15.625 g/ha: 15.625 g ai/ha, evaluated after 13 days (100=total damage to plant; 0=no damage to plant), read-out: Velvetleaf damage rating; for pest or weed control at 62.5 g/ha: 62.5 g ai/ha, read-out: Velvetleaf damage rating (100=total damage to plant; 0=no damage to plant); for pest or weed control at 62.5 g/ha / pest or weed control at 250 g/ha: evaluated after 13 days; for pest or weed control at 250 g/ha: 250 g ai/ha, read-out: damage to plant, Velvetleaf (100=total damage to plant; 0=no damage to plant)
How it was run: as §2

SMILES	pest or weed control at 15.625 g/ha [1] [%]	pest or weed control at 62.5 g/ha [1] [%]	pest or weed control at 250 g/ha [1] [%]	plant injury at 15.625 g/ha [2] [%]	plant injury at 62.5 g/ha [2] [%]	plant injury at 250 g/ha [2] [%]	pest or weed control at 15.625 g/ha [3] [%]	pest or weed control at 62.5 g/ha [3] [%]	pest or weed control at 250 g/ha [3] [%]	pest or weed control at 15.625 g/ha [4] [%]	pest or weed control at 62.5 g/ha [4] [%]	pest or weed control at 250 g/ha [4] [%]	pest or weed control at 15.625 g/ha [5] [%]	pest or weed control at 62.5 g/ha [5] [%]	pest or weed control at 250 g/ha [5] [%]	pest or weed control at 15.625 g/ha [6] [%]	pest or weed control at 62.5 g/ha [6] [%]	pest or weed control at 250 g/ha [6] [%]	pest or weed control at 15.625 g/ha [7] [%]	pest or weed control at 62.5 g/ha [7] [%]	further results
CN1C[C@@H](c2ccc(C(F)(F)F)cc2)[C@H](C(=O)Nc2ncccn2)C1=O (racemic) [Compound 1564]	0	0	0	0	0	10	0	0	0	0	0	0	0	0	0	0	0	0	0	0	pest or weed control at 250 g/ha [7]: 20%; plant injury at 15.625 g/ha [8]: 0%; plant injury at 62.5 g/ha [8]: 0%; plant injury at 250 g/ha [8]: 10%; pest or weed control at 15.625 g/ha [9]: 0%; pest or weed control at 62.5 g/ha [9]: 0%; pest or weed control at 250 g/ha [9]: 10%; pest or weed control at 15.625 g/ha [10]: 0%; pest or weed control at 62.5 g/ha [10]: 0%; pest or weed control at 250 g/ha [10]: 0%; pest or weed control at 15.625 g/ha [11]: 0%; pest or weed control at 62.5 g/ha [11]: 0%; pest or weed control at 250 g/ha [11]: 10%; pest or weed control at 15.625 g/ha [12]: 0%; pest or weed control at 62.5 g/ha [12]: 0%; pest or weed control at 250 g/ha [12]: 0%
CN1C[C@@H](c2ccc(C(F)(F)F)cc2)[C@H](C(=O)Nc2cccc(F)c2)C1=O (racemic) [Compound 1623]	10	30	60	10	0	10	20	60	80	10	10	10	10	10	50	10	0	50	10	70	pest or weed control at 250 g/ha [7]: 80%; plant injury at 15.625 g/ha [8]: 0%; plant injury at 62.5 g/ha [8]: 0%; plant injury at 250 g/ha [8]: 30%; pest or weed control at 15.625 g/ha [9]: 30%; pest or weed control at 62.5 g/ha [9]: 70%; pest or weed control at 250 g/ha [9]: 80%; pest or weed control at 15.625 g/ha [10]: 30%; pest or weed control at 62.5 g/ha [10]: 30%; pest or weed control at 250 g/ha [10]: 60%; pest or weed control at 15.625 g/ha [11]: 10%; pest or weed control at 62.5 g/ha [11]: 20%; pest or weed control at 250 g/ha [11]: 60%; pest or weed control at 15.625 g/ha [12]: 0%; pest or weed control at 62.5 g/ha [12]: 0%; pest or weed control at 250 g/ha [12]: 20%
